Values after ≈ are worked out from the molar mass of the structure shown. Active and inactive are the calls of the source. No cut-off for these calls is given here. A value given as a limit tells only on which side of the number the result lay.

Assay [1] deals with HL-60. As to the kind of experiment: Cytotoxicity against human HL60 cells by MTT assay. Type of assay: functional, cell-based.
Assay [2] in a line: Cytotoxicity against human BIU87 cells by MTT assay. The class given is functional, cell-based. In general terms: Formazan colour is commonly taken as a measure of viable cells.
In assay [3] the test system is HT-29. As to the kind of experiment: Cytotoxicity against human HT-29 cells by MTT assay. Type of assay: functional, cell-based.
Assay [4] concerns A549. As to the kind of experiment: Cytotoxicity against human A549 cells by MTT assay. The class given is functional, cell-based.
Assay [5] deals with HepG2. As to the kind of experiment: Cytotoxicity against human HepG2 cells by MTT assay. Type of assay: functional, cell-based.
In assay [6] the test system is MKN-28. As to the kind of experiment: Cytotoxicity against human MKN28 cells by MTT assay. The class given is functional, cell-based.
Assay [7] addresses T1, DNA topoisomerase 1 (Homo sapiens) (UniProt P11387).
T1 sequence (whole entry): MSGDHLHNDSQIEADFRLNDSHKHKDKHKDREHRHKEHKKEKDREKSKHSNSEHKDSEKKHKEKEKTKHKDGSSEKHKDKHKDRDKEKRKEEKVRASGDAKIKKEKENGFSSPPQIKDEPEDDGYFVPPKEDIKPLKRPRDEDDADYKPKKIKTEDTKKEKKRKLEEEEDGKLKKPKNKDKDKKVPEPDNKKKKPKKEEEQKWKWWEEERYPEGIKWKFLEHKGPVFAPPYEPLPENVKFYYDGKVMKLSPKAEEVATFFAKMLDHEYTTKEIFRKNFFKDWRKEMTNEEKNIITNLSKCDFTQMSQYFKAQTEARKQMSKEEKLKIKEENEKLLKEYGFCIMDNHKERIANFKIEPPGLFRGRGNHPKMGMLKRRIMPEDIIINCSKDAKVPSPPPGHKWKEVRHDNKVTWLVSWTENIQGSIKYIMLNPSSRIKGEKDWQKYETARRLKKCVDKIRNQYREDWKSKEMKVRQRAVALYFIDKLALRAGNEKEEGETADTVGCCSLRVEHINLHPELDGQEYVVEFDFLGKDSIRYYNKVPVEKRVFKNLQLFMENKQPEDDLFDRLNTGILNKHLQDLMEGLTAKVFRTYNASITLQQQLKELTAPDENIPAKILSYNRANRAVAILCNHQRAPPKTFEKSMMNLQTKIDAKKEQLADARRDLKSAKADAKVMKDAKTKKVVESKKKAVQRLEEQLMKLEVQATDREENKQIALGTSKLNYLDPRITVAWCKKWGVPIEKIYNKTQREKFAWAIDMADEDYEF
Nature of the assay: Inhibition of topoisomerase I relaxation activity assessed as supercoiled pBR322 DNA at 8 ug/ml.

Assay [8] addresses T1, DNA topoisomerase 1 (Homo sapiens). Nature of the assay: Inhibition of topoisomerase I relaxation activity assessed as supercoiled pBR322 DNA.

For `C=C1C[C@]23C[C@@]1(O)CC[C@H]2[C@@]12C=CC(=O)[C@](C)(C(=O)O1)[C@H]2[C@@H]3C(=O)OCc1ccccc1`, the IC50 in assay [1] and in assay [2] was over 40 µg/mL throughout.

In the case of `C=C1[C@H](O)[C@]23C[C@@]1(O)CC[C@H]2[C@@]12C=C[C@H](O)[C@](C)(C(=O)O1)[C@H]2[C@@H]3C(=O)OCc1ccccc1`, the concentration for half-maximal inhibition (IC50) in assay [1] and in assay [2] was over 100 µg/mL throughout.

On to `C=C1C(=O)[C@]23C[C@@]1(OCC)CC[C@H]2[C@@]12C=CC(=O)[C@](C)(C(=O)O1)[C@H]2[C@@H]3C(=O)OC`, for which the IC50 (as a rule, the point on the concentration scale where inhibition reaches its midpoint) in assay [3] was found to be 34.1 µM; in assay [4], 18.2 µM; in assay [5] it was 120 µM; in assay [6] it was 82.7 µM.

`C=C1[C@H](O)[C@]23C[C@@]1(OC(C)=O)CC[C@H]2[C@@]12C=C[C@H](OC(C)=O)[C@](C)(C(=O)O1)[C@H]2[C@@H]3C(=O)OCc1ccccc1`: the 50% inhibitory concentration (IC50) in assay [1] and in assay [2] was over 100 µg/mL throughout.

With `C=C1C(=O)[C@]23C[C@@]1(O)CC[C@H]2[C@@]12C=CC(=O)[C@](C)(C(=O)O1)[C@H]2[C@@H]3C(=O)OC`, the concentration for half-maximal inhibition (IC50) in assay [3] amounted to 65.7 µM; in assay [4], 90.9 µM; in assay [5], 37.2 µM; in assay [6], 39.6 µM.

For `C=C1C[C@]23C[C@@]1(O)CC[C@H]2[C@@]12C=C[C@H](O)[C@](C)(C(=O)O1)[C@H]2[C@@H]3C(=O)O` [GIBBERELLIN GA3], the half-inhibitory concentration (IC50) in assay [1] and in assay [2] was over 100 µg/mL throughout.

Take `C=C1C[C@]23C[C@@]1(O)CC[C@H]2[C@@]12C=C[C@H](O)[C@](C)(C(=O)O1)[C@H]2[C@@H]3C(=O)OCc1ccccc1`: the half-inhibitory concentration (IC50) in assay [1] and in assay [2] was over 100 µg/mL in each case.

Regarding `C=C1C(=O)[C@]23C[C@@]1(OCC)CC[C@H]2[C@@]12C=CC(=O)[C@](C)(C(=O)O1)[C@H]2[C@@H]3C(=O)OCc1ccccc1`, the IC50 in assay [3] worked out at 23.3 µM; in assay [4], 24.2 µM; in assay [5] it was 29.6 µM; in assay [6] it was 16.5 µM.

Take `C=C1C(=O)[C@]23C[C@@]1(OC(C)=O)CC[C@H]2[C@@]12C=C[C@H](OC(C)=O)[C@](C)(C(=O)O1)[C@H]2[C@@H]3C(=O)OCc1ccccc1`: the IC50 in assay [1] and in assay [2] was over 40 µg/mL throughout.

Take `C=C1C(=O)[C@]23C[C@@]1(Cl)CC[C@H]2[C@@]12C=CC(=O)[C@](C)(C(=O)O1)[C@H]2[C@@H]3C(=O)OCc1ccccc1`: the IC50 in assay [1] came to 2.7 µg/mL (≈ 5.78 µM); in assay [2], 0.5 µg/mL (≈ 1.07 µM); in assay [3] it was 4.5 µM; in assay [4], 28.8 µM; in assay [5] it was 17.9 µM; in assay [6], 6.8 µM.

Consider `C=C1C(=O)[C@]23C[C@@]1(OC)CC[C@H]2[C@@]12C=CC(=O)[C@](C)(C(=O)O1)[C@H]2[C@@H]3C(=O)OCc1ccccc1`, for which the IC50 is 48.4 µM in assay [3], 28.2 µM in assay [4], 35 µM in assay [5] and 0.8 µM in assay [6].

For `C=C1C(=O)[C@]23C[C@@]1(I)CC[C@H]2[C@@]12C=CC(=O)[C@](C)(C(=O)O1)[C@H]2[C@@H]3C(=O)OC`, the IC50 in assay [3] was determined as 51.9 µM; in assay [4], 53.2 µM; in assay [5], 87 µM; in assay [6], 6.7 µM.

Take `C=C1C(=O)[C@]23C[C@@]1(O)CC[C@H]2[C@@]12C=CC(=O)[C@](C)(C(=O)O1)[C@H]2[C@@H]3C(=O)OCc1ccccc1`: the 50% inhibitory concentration (IC50) was found to be 83.3 µM in assay [3], 23.9 µM in assay [4], 20.5 µM in assay [5] and 2.5 µM in assay [6].

Turning to `CC[C@]1(O)C[C@H]2CN(CCc3c([nH]c4ccccc34)[C@@](C(=O)OC)(c3cc4c(cc3OC)N(C=O)[C@H]3[C@@](O)(C(=O)OC)[C@H](OC(C)=O)[C@]5(CC)C=CCN6CC[C@]43[C@@H]65)C2)C1` [VINCRISTINE], the IC50 in assay [3] turned out to be 5.3 µM; in assay [4], 2.5 µM; in assay [5] it was 3.7 µM; in assay [6] it was 7.1 µM.

On to `C=C1[C@H](O)[C@]23C[C@@]1(O)CC[C@H]2[C@@]12C=C[C@H](O)[C@](C)(C(=O)O1)[C@H]2[C@@H]3C(=O)OC`, for which the IC50 in assay [1] and in assay [2] was over 100 µg/mL each time.

As to `C=C1C(=O)[C@]23C[C@@]1(F)CC[C@H]2[C@@]12C=CC(=O)[C@](C)(C(=O)O1)[C@H]2[C@@H]3C(=O)OC`, the IC50 turned out to be 72.7 µM in assay [3], 38.9 µM in assay [4], 40.6 µM in assay [5] and 4.1 µM in assay [6].

Regarding `C=C1C[C@]23C[C@@]1(O)CC[C@H]2[C@@]12C=C[C@H](O)[C@](C)(C(=O)O1)[C@H]2[C@@H]3C(=O)OC`, the IC50 in assay [1] and in assay [2] was over 100 µg/mL in each case.

On to `C=C1C(=O)[C@]23C[C@@]1(I)CC[C@H]2[C@@]12C=CC(=O)[C@](C)(C(=O)O1)[C@H]2[C@@H]3C(=O)OCc1ccccc1`, for which the IC50 was 50.2 µM in assay [3], 46 µM in assay [4], 69.5 µM in assay [5] and 3 µM in assay [6].

Regarding `C=C1C(=O)[C@]23C[C@@]1(F)CC[C@H]2[C@@]12C=CC(=O)[C@](C)(C(=O)O1)[C@H]2[C@@H]3C(=O)OCc1ccccc1`, the concentration for half-maximal inhibition (IC50) is 59.1 µM in assay [3], 64.4 µM in assay [4], 44.1 µM in assay [5] and 9.8 µM in assay [6].

With `C=C1C[C@]23C[C@@]1(OC(C)=O)CC[C@H]2[C@@]12C=C[C@H](OC(C)=O)[C@](C)(C(=O)O1)[C@H]2[C@@H]3C(=O)OCc1ccccc1`, the half-maximal inhibitory concentration (IC50) in assay [1] and in assay [2] was over 100 µg/mL each time.

For `C=C1C(=O)[C@]23C[C@@]1(OC)CC[C@H]2[C@@]12C=CC(=O)[C@](C)(C(=O)O1)[C@H]2[C@@H]3C(=O)OC`, the half-inhibitory concentration (IC50) in assay [3] is 80.2 µM; in assay [4], 54.5 µM; in assay [5], 43.5 µM; in assay [6], 3.4 µM.

In the case of `C=C1C(=O)[C@]23C[C@@]1(Cl)CC[C@H]2[C@@]12C=CC(=O)[C@](C)(C(=O)O1)[C@H]2[C@@H]3C(=O)OC`, the 50% inhibitory concentration (IC50) was found to be 6.5 µg/mL (≈ 16.6 µM) in assay [1]; 1 µg/mL (≈ 2.56 µM) in assay [2]; 2.9 µM in assay [3]; 60.3 µM in assay [4]; 39.8 µM in assay [5]; 4.8 µM in assay [6]. Moreover, the inhibition entry in assay [7] is “Active”. Besides, in assay [8], the inhibition entry was “Dose-dependent effect”.

These data come from ChEMBL document CHEMBL1155979, “Synthesis of gibberellin derivatives with anti-tumor bioactivities” (Bioorg Med Chem Lett, 2009).
